The structures appear in SMILES notation.

This experiment deals with HCV 1b genotype. Briefly: HCV replicon assay, 1b genotype. Type of experiment: cell-based. The note with it: Hepatitis C virus; HCV 1b genotype replicon; EC50 = effective 50% inhibitory concentration. On the procedure:
An HCV Replion assay was utilized in the present disclosure, and was prepared, conducted and validated as described in commonly owned PCT/US2006/022197 and in O'Boyle et. al. Antimicrob Agents Chemother. 2005 April; 49(4):1346-53. Assay methods incorporating luciferase reporters have also been used as described (Apath.com).
HCV-neo replicon cells and replicon cells containing mutations in the NS5A region were used to test the currently described family of compounds. The compounds were determined to have more than 10-fold less inhibitory activity on cells containing mutations than wild-type cells. Thus, the compounds of the present disclosure can be effective in inhibiting the function of the HCV NS5A protein and are understood to be as effective in combinations as previously described in application PCT/US2006/022197 and commonly owned WO/04014852. Further, the compounds of the present disclosure can be effective against the HCV 1b genotype. It should also be understood that the compounds of the present disclosure can inhibit multiple genotypes of HCV. […] In one embodiment, compounds of the present disclosure are inhibitory versus 1a, 1b, 2a, 2b, 3a, 4a, and 5a genotypes.
(Replicon systems follow genome replication, usually without infectious particles.)
One may read the EC50 as the midpoint of the concentration-response curve. Regarding `COC(=O)N[C@@H](C(=O)N1CCC[C@H]1c1ncc(-c2nc3cc4sc(-c5cnc([C@@H]6CCCN6C(=O)[C@H](NC(=O)OC)c6ccccc6)[nH]5)nc4cc3s2)[nH]1)c1ccccc1` [Example 2, Dimethyl ([1,3]thiazolo[5,4-f][1,3]benzothiazole-2,6-diylbis(1H-imidazole-4,2-diyl(2S)-2,1-pyrrolidinediyl((1R)-2-oxo-1-phenyl-2,1-ethanediyl)))biscarbamate, bistrifluoracetate], the EC50 stood at 0.025 nM.

On to `COC(=O)N[C@@H](C(=O)N1CCC[C@H]1c1ncc(-c2nc3cc4sc(-c5cnc([C@@H]6CCCN6C(=O)[C@H](NC(=O)OC)C(C)C)[nH]5)nc4cc3s2)[nH]1)C(C)C` [Example 3, Methyl ((1R)-1-(((2S)-2-(4-(6-(2-((2S)-1-((2R)-2-((methoxycarbonyl)amino)-3-methylbutanoyl)-2-pyrrolidinyl)-1H-imidazol-4-yl)[1,3]thiazolo[5,4-f][1,3]benzothiazol-2-yl)-1H-imidazol-2-yl)-1-pyrrolidinyl)carbonyl)-2-methylpropyl)carbamate, bistrifluoracetate], for which the EC50 is 350 nM.

Turning to `COC(=O)N[C@H](C(=O)N1CCC[C@H]1c1ncc(-c2nc3cc4sc(-c5cnc([C@@H]6CCCN6C(=O)[C@@H](NC(=O)OC)C(C)C)[nH]5)nc4cc3s2)[nH]1)C(C)C` [Example 1, Methyl ((1S)-1-(((2S)-2-(4-(6-(2-((28)-1-((2S)-2-((methoxycarbonyl)amino)-3-methylbutanoyl)-2-pyrrolidinyl)-1H-imidazol-4-yl)[1,3]thiazolo[5,4-f][1,3]benzothiazol-2-yl)-1H-imidazol-2-yl)-1-pyrrolidinyl)carbonyl)-2-methylpropyl)carbamate, bistrifluoracetate], the EC50 is 0.034 nM.

The values above are taken from patent publication US8143414B2, “Hepatitis C virus inhibitors” (Bristol-Myers Squibb Company, priority 2009, dated 2012).
